Data published in the NIST ThermoML archive (doi:10.1021/acs.jced.5b00662).
Values joined by “and” are separate entries in the source; they are usually repeats but may differ in a detail not shown here. Equal values may be shown once.

Experiments:
[1] = 101.33 kPa, Liquid; for speed of sound: Sing-around technique in a fixed-path interferometer; for mass density: Vibrating tube method; for viscosity: Concentric cylinders viscometry
[2] = refractive index (Na D-line) (dimensionless); conditions: 101.33 kPa, Liquid, Standard Abbe refractometry

CCOCCO [2-ethoxyethan-1-ol]
Conditions | mass density, [1] | refractive index, [2] | speed of sound, [1] [m/s] | viscosity, [1] [mPa·s]
283.15 K | 941.2 kg/m3 | 1.4149 | 1360.6 | –
288.15 K | 936.8 kg/m3 and 936.7 kg/m3 | 1.4125 | 1342 | 2.314
293.15 K | 932.3 kg/m3 and 932.2 kg/m3 | 1.41024 | 1323.9 | 2.066
298.15 K | 927.6 kg/m3 and 927.7 kg/m3 | 1.40803 | 1305.7 | 1.845
303.15 K | 923.1 kg/m3 | 1.40613 | 1286.7 | 1.661
308.15 K | 918.5 kg/m3 | – | 1268.6 | 1.503
313.15 K | 913.8 kg/m3 and 913.9 kg/m3 | 1.4018 | 1250.2 | 1.365
318.15 K | 909.3 kg/m3 | – | – | 1.247
323.15 K | 904.5 kg/m3 and 904.6 kg/m3 | 1.39691 | 1213.8 | 1.143
328.15 K | 899.9 kg/m3 | – | – | 1.051
333.15 K | 895 kg/m3 and 895.1 kg/m3 | 1.39271 | 1178.5 | 0.962
338.15 K | 890.4 kg/m3 | – | – | 0.895
343.15 K | 885.5 kg/m3 and 885.2 kg/m3 | 1.38849 | 1143.7 | 0.829
348.15 K | 880.7 kg/m3 | – | – | 0.77
353.15 K | 875.8 kg/m3 | 1.3838 | – | 0.725
358.15 K | 871 kg/m3 | – | – | 0.666
363.15 K | 866.1 kg/m3 | – | – | 0.623
368.15 K | 861.2 kg/m3 | – | – | 0.584
373.15 K | 856.3 kg/m3 | – | – | 0.518

COCCOCCOCCOCCOC [2,5,8,11,14-pentaoxapentadecane]
Conditions | mass density, [1] | refractive index, [2] | speed of sound, [1] [m/s] | viscosity, [1] [mPa·s]
283.15 K | 1020.7 kg/m3 | 1.43599 | 1439.7 | –
288.15 K | 1017 kg/m3 and 1016.1 kg/m3 | 1.43414 | 1420.3 | 4.337
293.15 K | 1012.3 kg/m3 and 1011.5 kg/m3 | 1.43196 | 1401 | 3.846
298.15 K | 1006.8 kg/m3 and 1007.6 kg/m3 | 1.42992 | 1382 | 3.335
303.15 K | 1002.2 kg/m3 and 1003.1 kg/m3 | 1.42777 | 1363.1 | 2.967
308.15 K | 997.6 kg/m3 and 998.8 kg/m3 | – | 1344.3 | 2.66
313.15 K | 993 kg/m3 and 994.1 kg/m3 | 1.42373 | 1325.6 | 2.389
318.15 K | 989.5 kg/m3 | – | – | 2.183
323.15 K | 983.7 kg/m3 and 984.9 kg/m3 | 1.41973 | 1289.1 | 1.995
328.15 K | 980.2 kg/m3 | – | – | 1.832
333.15 K | 974.5 kg/m3 and 975.6 kg/m3 | 1.41578 | 1253.4 | 1.677
338.15 K | 971 kg/m3 | – | – | 1.566
343.15 K | 966.5 kg/m3 and 965.3 kg/m3 | 1.41174 | 1218.5 | 1.456
348.15 K | 961.9 kg/m3 | – | – | 1.358
353.15 K | 957.3 kg/m3 | 1.40773 | – | 1.25
358.15 K | 952.7 kg/m3 | – | – | 1.188
363.15 K | 948.1 kg/m3 | – | – | 1.115
368.15 K | 943.5 kg/m3 | – | – | 1.047
373.15 K | 938.9 kg/m3 | – | – | 0.978

COCCOCCOC [2,5,8-trioxanonane]
Conditions | mass density, [1] | refractive index, [2] | speed of sound, [1] [m/s] | viscosity, [1] [mPa·s]
283.15 K | 953.7 kg/m3 | 1.41249 | 1340.7 | –
288.15 K | 950.2 kg/m3 and 948.7 kg/m3 | 1.4102 | 1320 | 1.161
293.15 K | 945.2 kg/m3 and 943.8 kg/m3 | 1.40802 | 1299.9 | 1.081
298.15 K | 938.8 kg/m3 and 940.2 kg/m3 | 1.40579 | 1280 | 1.011
303.15 K | 933.8 kg/m3 and 935.2 kg/m3 | 1.40359 | 1260.1 | 0.942
308.15 K | 928.8 kg/m3 and 930.2 kg/m3 | – | 1240.3 | 0.879
313.15 K | 923.8 kg/m3 and 925.2 kg/m3 | 1.39921 | 1220.6 | 0.825
318.15 K | 920.2 kg/m3 | – | – | 0.767
323.15 K | 913.7 kg/m3 and 915.2 kg/m3 | 1.3949 | 1181.7 | 0.718
328.15 K | 910.1 kg/m3 | – | – | 0.674
333.15 K | 903.6 kg/m3 and 905 kg/m3 | 1.3905 | 1143.4 | 0.633
338.15 K | 899.9 kg/m3 | – | – | 0.599
343.15 K | 894.8 kg/m3 and 893.4 kg/m3 | 1.38623 | 1105.8 | 0.566
348.15 K | 889.7 kg/m3 | – | – | 0.537
353.15 K | 884.6 kg/m3 | 1.38178 | – | 0.505
358.15 K | 879.4 kg/m3 | – | – | 0.486
363.15 K | 874.2 kg/m3 | – | – | 0.464
368.15 K | 869 kg/m3 | – | – | 0.444
373.15 K | 863.8 kg/m3 | – | – | 0.441
